Experiments:
[1] = biological target: T1, human LXR alpha ligand binding domain (LXRα-LBD) (Homo sapiens, UniProt Q13133); assay: Radioligand binding assay (SPA), LXR alpha; settings: LXRα-LBD on SPA beads, read-out: LXRalpha Binding IC50
T1 construct: human LXR alpha (aa 164 to 447); unspecified tag ('tagged versions'); made in house; host or cells: E. coli BL21 (pLysS)
T1 sequence (Q13133 164-447): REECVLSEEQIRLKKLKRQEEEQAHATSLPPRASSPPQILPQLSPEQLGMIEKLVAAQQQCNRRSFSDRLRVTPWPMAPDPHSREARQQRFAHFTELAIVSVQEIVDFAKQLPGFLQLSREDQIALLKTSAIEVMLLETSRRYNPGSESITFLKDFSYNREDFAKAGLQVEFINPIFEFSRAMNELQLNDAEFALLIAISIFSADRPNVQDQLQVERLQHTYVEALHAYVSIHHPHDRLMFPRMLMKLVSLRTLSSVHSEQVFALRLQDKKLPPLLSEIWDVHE
Experimental: (§1) The following tests were carried out in order to determine the activity of the compounds of the present invention. Background information on the performed assays can be found in: Nichols J S et al. “Development of a scintillation proximity assay for peroxisome proliferator-activated receptor gamma ligand binding domain”, Anal Biochem. 1998, 257: 112-119.
(§2) Mammalian expression vectors were constructed to express full-length human LXR alpha and LXR beta. Bacterial expression vectors were constructed to produce tagged versions of the ligand binding domains (LBD) of human LXR alpha (aa 164 to 447) and human LXR beta (aa 155 to 460). To accomplish this, the portions of the sequences encoding the LBDs were amplified from the full-length clones by PCR and then subcloned into the plasmid vectors. Final clones were verified by DNA sequence analysis (Willy et al., Genes Dev. 1995, 9:1033-45; Song et al., Proc Natl Acad Sci USA.1994, 91:10809-13).
(§3) Induction, expression, and purification of LBD proteins were performed in E. coli strain BL21 (pLysS) cells by standard methods (Ref: Current Protocols in Molecular Biology, Wiley Press, edited by Ausubel et al).
(§4) Radioligand Binding Assay
(§5) LXR alpha and LXR beta receptor binding were assayed in buffer consisting of 50 mM HEPES, pH 7.4, 10 mM NaCl, 5 mM MgCl2. For each 96-well reaction, 500 ng of LXRα-LBD or 700 ng of LXR beta-LBD proteins were bound to 80 μg or 40 μg SPA beads respectively, in a final volume of 50 μl by shaking. The resulting slurry was incubated for 1 h at RT and centrifuged for 2 min at 1300×g. The supernatant containing unbound protein was removed, and the semi-dry pellet containing the receptor-coated beads was re-suspended in 50 μl of buffer. […] All binding assays were performed in 96-well plates and the amount of bound ligand was measured on a Packard TopCount using OptiPlates (Packard). Dose response curves were measured within a range of concentration from 10^−10 M to 10^−4 M.

[2] = biological target: T2, human LXR beta ligand binding domain (LXR beta-LBD) (Homo sapiens, UniProt P55055); assay: Radioligand binding assay (SPA), LXR beta; settings: LXR beta-LBD on SPA beads, read-out: LXRbeta Binding IC50
T2 construct: human LXR beta (aa 155 to 460); unspecified tag ('tagged versions'); made in house; host or cells: E. coli BL21 (pLysS)
T2 sequence (P55055 155-460): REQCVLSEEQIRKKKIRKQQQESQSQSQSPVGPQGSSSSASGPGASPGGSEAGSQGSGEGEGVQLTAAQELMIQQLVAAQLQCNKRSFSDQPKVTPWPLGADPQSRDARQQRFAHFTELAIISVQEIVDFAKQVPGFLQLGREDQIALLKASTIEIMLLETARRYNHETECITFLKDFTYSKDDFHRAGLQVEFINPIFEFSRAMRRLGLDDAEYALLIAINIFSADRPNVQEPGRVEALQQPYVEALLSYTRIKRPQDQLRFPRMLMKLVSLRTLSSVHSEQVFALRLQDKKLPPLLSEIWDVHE
Experimental: as §1, §2, §3, §4, §5

Row | SMILES | IC50 [1] [nM] | IC50 [2] [nM]
1 | O=C(C1CN(S(=O)(=O)c2ccccc2)C(=O)N1C1CCCCC1)N1CCN(c2ncccc2C(F)(F)F)CC1 (racemic) [Example 39, (RS)-1-Benzenesulfonyl-3-cyclohexyl-4-[4-(3-trifluoromethyl-pyridin-2-yl)-piperazine-1-carbonyl]-imidazolidin-2-one] | 5500 | 480
2 | O=C(C1CN(S(=O)(=O)c2ccccc2)C(=O)N1c1ccccc1Cl)N1CCN(c2ncccc2Cl)CC1 (racemic) [Example 63, (RS)-1-Benzenesulfonyl-3-(2-chloro-phenyl)-4-[4-(3-chloro-pyridin-2-yl)-piperazine-1-carbonyl]-imidazolidin-2-one] | 2500 | 240
3 | Cc1ccc(C)c(N2CCN(C(=O)[C@@H]3CN(S(=O)(=O)c4ccccc4)C(=O)N3c3ccccc3Cl)CC2)c1 [Example 50, (S)-1-Benzenesulfonyl-3-(2-chloro-phenyl)-4-[4-(2,5-dimethyl-phenyl)-piperazine-1-carbonyl]-imidazolidin-2-one] | 260 | 100
